Assay results taken from US20040024024A1, “Aromatic sulfone hydroxamates and their use as protease inhibitors” (priority 2001, published 2004).

Experiments:
Assay in all cases: In vitro MMP inhibition, IC50 determination (fluorogenic substrate I)
Type in all cases: biochemical
[1] = target: T1, Human recombinant MMP-1 (Homo sapiens, UniProt P03956)
T1 construct: made in house; host or cells: MMP-1-transfected HT-1080 cells (spent media)
T1 sequence (P03956 100-469): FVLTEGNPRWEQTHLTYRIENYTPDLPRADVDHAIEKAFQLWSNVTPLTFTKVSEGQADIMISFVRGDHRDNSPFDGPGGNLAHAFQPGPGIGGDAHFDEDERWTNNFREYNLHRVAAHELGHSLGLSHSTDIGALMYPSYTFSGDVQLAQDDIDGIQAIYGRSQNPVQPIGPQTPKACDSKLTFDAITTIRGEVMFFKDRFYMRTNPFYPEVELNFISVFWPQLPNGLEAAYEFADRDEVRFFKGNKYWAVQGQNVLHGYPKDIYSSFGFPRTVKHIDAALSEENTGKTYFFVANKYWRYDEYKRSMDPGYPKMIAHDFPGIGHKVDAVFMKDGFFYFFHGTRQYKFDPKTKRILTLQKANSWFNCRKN
Method in brief: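 APMA- or trypsin-activated enzyme, purified from spent media of transfected HT-1080 cells, incubated at room temperature with 4 μM MCA-Pro-Leu-Gly-Leu-Dpa-Ala-Arg-NH2 and graded inhibitor in Tris buffer pH 7.5 (10 mM CaCl2, 0.05% Brij). Cleavage read by fluorescence (ex 328/em 415 nm); IC50 from fluorescence reduction versus inhibitor concentration.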

[2] = target: T2, Human recombinant MMP-2 (Homo sapiens, UniProt P08253)
T2 construct: made in house; host or cells: MMP-2-transfected p2AHT2 cells
T2 sequence (P08253 110-660): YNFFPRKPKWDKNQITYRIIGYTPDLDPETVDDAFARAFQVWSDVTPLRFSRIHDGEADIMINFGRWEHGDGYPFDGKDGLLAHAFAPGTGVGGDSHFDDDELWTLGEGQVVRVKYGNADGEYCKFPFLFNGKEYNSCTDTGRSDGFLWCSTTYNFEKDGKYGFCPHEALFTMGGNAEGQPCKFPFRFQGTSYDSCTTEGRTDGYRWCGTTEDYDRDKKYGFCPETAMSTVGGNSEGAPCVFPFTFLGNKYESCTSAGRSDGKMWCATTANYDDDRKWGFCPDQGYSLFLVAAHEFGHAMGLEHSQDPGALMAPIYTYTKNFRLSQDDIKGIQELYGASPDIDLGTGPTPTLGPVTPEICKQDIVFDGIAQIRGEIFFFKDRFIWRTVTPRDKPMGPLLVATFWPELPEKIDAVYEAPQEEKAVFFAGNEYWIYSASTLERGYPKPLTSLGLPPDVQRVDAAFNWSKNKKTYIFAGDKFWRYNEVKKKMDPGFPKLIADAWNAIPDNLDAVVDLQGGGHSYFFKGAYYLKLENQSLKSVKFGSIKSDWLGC
Method in brief: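 APMA- or trypsin-activated recombinant MMP-2 was incubated at room temperature with serial inhibitor dilutions in Tris buffer pH 7.5 (100 mM NaCl, 10 mM CaCl2, 0.05% Brij), with DMSO from 1% stocks, and 4 μM substrate I. Cleavage was read by fluorescence at 328/415 nm; IC50 was taken from the loss of fluorescence versus inhibitor concentration.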

[3] = target: T3, Human recombinant MMP-9 (Homo sapiens, UniProt P14780)
T3 construct: made in house; host or cells: MMP-9-transfected HT1080 cells (spent media)
Method in brief: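 MMP-9 proenzyme purified from transfected HT1080 cell media, activated with APMA or trypsin. Compound dilutions in pH 7.5 Tris/NaCl/CaCl2 buffer with 0.05% polyoxyethylene 23 lauryl ether, incubated at room temperature with 4 μM MCA/Dpa substrate I. IC50 from fluorescence loss (ex 328, em 415 nm) versus inhibitor concentration.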

[4] = target: T4, Human recombinant MMP-13 (Homo sapiens, UniProt P45452)
T4 construct: made in house; host or cells: baculovirus / insect cells
Method in brief: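 Fluorescence at 415 nm (excitation 328 nm) reports Gly-Leu cleavage of 4 μM quenched methoxycoumarin peptide substrate I. Human recombinant MMP-13, activated by trypsin or APMA, was incubated at room temperature with varied inhibitor concentrations in pH 7.5 Tris/NaCl/CaCl2 buffer; IC50 derived from reduced fluorescence.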

[5] = target: T5, Human recombinant MMP-14 (Homo sapiens, UniProt P50281)
T5 construct: The catalytic domain enzyme was expressed in E. coli inclusion bodies, solubilized in urea; made in house
Method in brief: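 Catalytic-domain MMP-14, expressed in E. coli and refolded, activated with APMA or trypsin; compounds incubated at room temperature with 4 μM fluorogenic substrate I (MCA-PLGL-Dpa-AR-NH2) in Tris/NaCl/CaCl2 buffer, pH 7.5. Fluorescence at ex 328/em 415 nm; IC50 from loss of fluorescence versus inhibitor concentration.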

[6] = value outside parentheses (Ki in parenthesis)
[7] = substrate (I) 4 μM, room temperature, values not in parenthesis

T3 sequence (P14780 107-707 limits assumed): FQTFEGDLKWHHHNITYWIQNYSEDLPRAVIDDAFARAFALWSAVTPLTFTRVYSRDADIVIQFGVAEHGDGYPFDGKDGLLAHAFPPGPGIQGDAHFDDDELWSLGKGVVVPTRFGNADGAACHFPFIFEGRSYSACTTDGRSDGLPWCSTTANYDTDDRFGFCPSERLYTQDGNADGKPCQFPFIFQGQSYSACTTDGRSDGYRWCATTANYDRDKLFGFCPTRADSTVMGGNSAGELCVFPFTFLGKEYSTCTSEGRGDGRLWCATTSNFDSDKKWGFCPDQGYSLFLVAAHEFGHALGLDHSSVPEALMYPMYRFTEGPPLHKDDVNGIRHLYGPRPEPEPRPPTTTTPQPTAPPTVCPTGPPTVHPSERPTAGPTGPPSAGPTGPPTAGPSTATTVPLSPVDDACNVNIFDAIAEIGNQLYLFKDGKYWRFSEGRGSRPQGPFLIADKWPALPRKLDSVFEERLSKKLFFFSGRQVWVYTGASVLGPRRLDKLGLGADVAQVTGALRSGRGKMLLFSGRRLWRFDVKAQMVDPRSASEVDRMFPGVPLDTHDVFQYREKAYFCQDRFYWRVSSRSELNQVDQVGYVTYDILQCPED

O=C(NO)C1(S(=O)(=O)c2ccc(OCCSc3nc4cc(Cl)ccc4s3)cc2)CCOCC1 [Example 281]
IC50 ([1]; value outside parenthesis): > 10000 nM
IC50 ([2]; value outside parenthesis): 70.4 nM
IC50 ([3]; value outside parenthesis): 276 nM
IC50 ([4]; value outside parenthesis): 1.3 nM
IC50 ([5]; value outside parenthesis): > 10000 nM

O=C(NO)C1(S(=O)(=O)c2ccc(NCCCCc3ccccc3)cc2)CCOCC1 [Example 462]
IC50 [1, 6]: > 10000 nM
IC50 [2, 6]: 11 nM
IC50 [3, 6]: 18 nM
IC50 [4, 6]: 7 nM
IC50 [5, 6]: 6500 nM

O=C(NO)C1(S(=O)(=O)c2ccc(OCCCSc3nc4ccccc4s3)cc2)CCOCC1 [Example 288]
IC50 ([1]; value outside parenthesis): > 10000 nM
IC50 ([2]; value outside parenthesis): 2.3 nM
IC50 ([3]; value outside parenthesis): 10.6 nM
IC50 ([4]; value outside parenthesis): 0.8 nM
IC50 ([5]; value outside parenthesis): > 10000 nM

Cc1ccc(C(=O)NCCCOc2ccc(S(=O)(=O)C3(C(=O)NO)CCOCC3)cc2)cc1C [Example 371]
IC50 [1, 6]: > 10000 nM
IC50 [2, 6]: 1100 nM
IC50 [3, 6]: 9600 nM
IC50 [4, 6]: 2.4 nM
IC50 [5, 6]: > 10000 nM

CC[C@@H]1C(=O)N(CCCOc2ccc(S(=O)(=O)C3(C(=O)NO)CCOCC3)cc2)C(=O)N1c1ccccc1 [Example 106]
IC50 ([1]; value outside parenthesis): > 10000 nM
IC50 ([2]; value outside parenthesis): 1050 nM
IC50 ([3]; value outside parenthesis): > 10000 nM
IC50 ([4]; value outside parenthesis): 3.5 nM
IC50 ([5]; value outside parenthesis): > 10000 nM

O=C(NO)C1(S(=O)(=O)c2ccc(OCCCOc3ccc(C(F)(F)F)cc3)cc2)CCN(C2CC2)CC1 [Example 319]
IC50 [1, 6]: > 10000 nM
IC50 [2, 6]: 5.8 nM
IC50 [3, 6]: 258 nM
IC50 [4, 6]: 1 nM
IC50 [5, 6]: 4220 nM

Cc1ccc(-c2noc(CCCOc3ccc(S(=O)(=O)C4(C(=O)NO)CCOCC4)cc3)n2)c(F)c1 [Example 218]
IC50 ([1]; value outside parenthesis): > 10000 nM
IC50 ([2]; value outside parenthesis): 40.4 nM
IC50 ([3]; value outside parenthesis): 2970 nM
IC50 ([4]; value outside parenthesis): 1.4 nM
IC50 ([5]; value outside parenthesis): > 10000 nM

COc1ccc(/C(C#N)=C/CCCOc2ccc(S(=O)(=O)C3(C(=O)NO)CCOCC3)cc2)cc1 [Example 27, 4-[[4-[[(4Z)-5-cyano-5-(4-methoxyphenyl)-4-pentenyl]oxy]phenyl]sulfonyl]tetrahydro-N-hydroxy-2H-pyran-4-carboxamide]
IC50 [1, 7]: > 10000 nM
IC50 [2, 7]: 83.9 nM
IC50 [3, 7]: 9370 nM
IC50 [4, 7]: 0.2 nM
IC50 [5, 7]: > 10000 nM

O=C(NO)C1(S(=O)(=O)c2ccc(OCC3Cc4cc(Oc5ccccc5)ccc4O3)cc2)CCOCC1 (centres unmarked) [Example 664]
IC50 ([1]; value outside parentheses): > 10000 nM
IC50 ([2]; value outside parentheses): 19.8 nM
IC50 ([3]; value outside parentheses): 430 nM
IC50 ([4]; value outside parentheses): 1.02 nM
IC50 ([5]; value outside parentheses): 2650 nM

O=C(NO)C1(S(=O)(=O)c2ccc(OCCOc3ccc4c(c3)OCO4)cc2)CCOCC1 [Example 665]
IC50 ([1]; value outside parentheses): > 10000 nM
IC50 ([2]; value outside parentheses): 11.6 nM
IC50 ([3]; value outside parentheses): 44.3 nM
IC50 ([4]; value outside parentheses): 2.39 nM
IC50 ([5]; value outside parentheses): 2130 nM

CC(C)Oc1ccc(-c2nnc(CCCOc3ccc(S(=O)(=O)C4(C(=O)NO)CCOCC4)cc3)o2)cc1 [Example 209]
IC50 ([1]; value outside parenthesis): > 10000 nM
IC50 ([2]; value outside parenthesis): 172 nM
IC50 ([3]; value outside parenthesis): 906 nM
IC50 ([4]; value outside parenthesis): 1.4 nM
IC50 ([5]; value outside parenthesis): > 10000 nM

CCOc1ccc(-c2noc(CCCOc3ccc(S(=O)(=O)C4(C(=O)NO)CCN(C5CC5)CC4)cc3)n2)cc1 [Example 268]
IC50 ([1]; value outside parenthesis): > 10000 nM
IC50 ([2]; value outside parenthesis): 126 nM
IC50 ([3]; value outside parenthesis): 674 nM
IC50 ([4]; value outside parenthesis): 2.5 nM
IC50 ([5]; value outside parenthesis): > 10000 nM

COCCN1CCC(C(=O)NO)(S(=O)(=O)c2ccc(OCCCSc3nc4ccccc4s3)cc2)CC1 [Example 615]
IC50 ([1]; value outside parentheses): > 10000 nM
IC50 ([2]; value outside parentheses): 1.1 nM
IC50 ([3]; value outside parentheses): 3.6 nM
IC50 ([4]; value outside parentheses): 0.4 nM
IC50 ([5]; value outside parentheses): 6700 nM
